Literature values in PMC8528301 (PLoS ONE, 2021).
Read-outs that look alike come from different tables or passages of the source.

Assays:
[1] = cited from earlier work; for Tmax: oral dosing
CYP3A4 = system: CYP3A4; set-up: method as in PMID 19282395; conditions: cited from earlier work

Cc1nc(Nc2ncc(C(=O)Nc3c(C)cccc3Cl)s2)cc(N2CCN(CCO)CC2)n1 [dasatinib]
bioavailability ([1]; mice): 17%
bioavailability ([1]; one study, species not given): 45–51%
Tmax ([1]; Mdr1a wild-type and KO mice): 0.25 h
Tmax ([1]; nude female nude mice): 2 h
K(inact), CYP3A4 mechanism-based inactivation (CYP3A4): 0.034 min (-1)
KI (inactivation) (CYP3A4; read-out: K(I), CYP3A4 mechanism-based inactivation): 6.3 µM
